From US20250129119A1, “PEPTIDE HAVING ANTI-INFLAMMATORY ACTIVITY AND USE THEREOF” (CAREGEN CO., LTD., priority 2021, published 2025)

Experiments:
Type in all cases: cell-based
[1] = tested on: COX2 and INFγ mRNA expression induced by LPS in splenocytes; test: RT-PCR of inflammatory gene mRNA in LPS-stimulated splenocytes; conditions: mouse splenocytes; peptide 5 μM and 50 μM; LPS 2 μg/mL; 3 hours; FIG. 1
Experimental: In order to confirm the effect of the peptides of the present invention synthesized in Synthesis Example 1 on the inflammatory response induced by LPS, the expression levels of mRNA of inflammatory cytokines COX2 and INFγ were measured by RT-PCR.
(§1) Specifically, 6-7 week old mice (C57BL/6, Young Bio Co., Ltd.) were sacrificed to obtain spleens, which were crushed using a cell strainer, and then centrifuged along with serum-free RPMI-1640 medium. The supernatant was discarded and red blood cells (RBCs) were removed twice using RBC lysis buffer. Then, after washing the resultant with serum-free RPMI-1640 medium, an appropriate amount of serum-free RPMI-1640 medium was added. The number of mouse splenocytes was measured, and the cells were inoculated into a 24-well plate at a density of 1×10^7 cells/well, and cultured overnight. Next day, the medium was replaced with serum-free medium and the cells were cultured for 4 hours, and then treated with the peptide of the present invention (5 μM and 50 μM) and LPS (2 μg/mL), which is an inflammation-inducing substance, as a stimulant, and cultured for 3 additional hours.
Next, cells were recovered after culture, and total RNA was extracted using an RNA extraction kit (Qiagen RNeasy kit), and after RNA quantification, cDNA was synthesized using a cDNA synthesis kit (Intron, Korea). […]

[2] = tested on: secretion of TNF-α, IFN-γ and IL-17 induced by LPS in splenocytes; test: ELISA of cytokine secretion in LPS-stimulated splenocytes; conditions: mouse splenocytes, peptide 5 μM and 50 μM, LPS 2 μg/mL, 24 hours
Experimental: In order to confirm the effect of the peptides of the present invention synthesized in Synthesis Example 1 on the inflammatory response induced by LPS, the secretion amounts of inflammatory cytokines TNF-α, IL-17, and INFγ were measured by ELISA.
as §1, with “centrifuged” for “centrifuged along”, “added thereto.” for “added.”, “24” for “3”
Next, the cell culture was recovered after cultivation, and the amounts of secretion of IL-17, IFN-γ, and TNF-α, which are secretion markers during Th17 differentiation, were measured using an ELISA kit (Quantikine ELISA Kit, R&D System, USA) specific to IL-17, IFN-γ, and TNF-α, and the absorbance was measured using Spectramax M2 (Molecular Devices).

[3] = tested on: secretion of TNF-α, IL-1β and INFγ induced by TNF-α in splenocytes; test: ELISA of cytokine secretion in TNF-α-stimulated splenocytes; conditions: mouse splenocytes, peptide 5 μM and 50 μM, TNF-α 20 nM, 24 hours
Experimental: In order to confirm the effect of the peptides of the present invention synthesized in Synthesis Example 1 on the inflammatory response induced by TNF-α, the secretion amounts of TNF-α, IL-1β, and INFγ, which are inflammatory cytokines, were measured by ELISA.
as §1, with “centrifuged” for “centrifuged along”, “added thereto.” for “added.”, “TNF-α (20 nM),” for “LPS (2 μg/mL),”, “24” for “3”
Next, the cell culture was recovered after cultivation, and the amounts of secretion of TNF-α, IL-1β, and INFγ, which are inflammatory cytokines, were measured using an ELISA kit (Quantikine ELISA Kit, R&D System, USA) specific to TNF-α, IL-1β, and INFγ, and the absorbance was measured using Spectramax M2 (Molecular Devices).

[4] = tested on: secretion of INFγ induced by LPS, TGF-β, and IL-23 in splenocytes; test: ELISA of INFγ secretion in splenocytes stimulated with LPS, TGF-β and IL-23; conditions: mouse splenocytes; peptide 5 μM and 50 μM; LPS 2 μg/mL, TGF-β 20 ng/mL, IL-23 20 ng/mL; 24 hours; FIG. 4
Experimental: In order to confirm the effect of the peptides of the present invention synthesized in Synthesis Example 1 on the inflammatory response induced by LPS, TGF-β, and IL-23, the secretion amount of INFγ, which is an inflammatory cytokine, was measured by ELISA.
Specifically, 6-7 week old mice (C57BL/6, Young Bio Co., Ltd.) were sacrificed to obtain spleens, which were crushed using a cell strainer, and then centrifuged with serum-free RPMI-1640 medium. The supernatant was discarded and red blood cells (RBCs) were removed twice using RBC lysis buffer. Then, after washing the resultant with serum-free RPMI-1640 medium, an appropriate amount of serum-free RPMI-1640 medium was added thereto. The number of mouse splenocytes was measured, and the cells were inoculated into a 24-well plate at a density of 1×10^7 cells/well, and cultured overnight. […]
Next, the cell culture was recovered after cultivation, and the amount of secretion of INFγ, which is an inflammatory cytokine, was measured using an ELISA kit (Quantikine ELISA Kit, R&D System, USA) specific to INFγ, and the absorbance was measured using Spectramax M2 (Molecular Devices).

[5] = tested on: secretion of IL-17 induced by TNF-α and IL-17A in splenocytes; test: ELISA of IL-17 secretion in splenocytes stimulated with TNF-α and IL-17A; conditions: mouse splenocytes; peptide 5 μM and 50 μM; TNF-α 20 nM and IL-17A 200 ng/mL; 24 hours; FIG. 5
Experimental: In order to confirm the effect of the peptides of the present invention synthesized in Synthesis Example 1 on the inflammatory response induced by TNF-α and IL-17A, the secretion amount of IL-17, which is an inflammatory cytokine, was measured by ELISA.
Specifically, 6-7 week old mice were sacrificed to obtain spleens, which were crushed using a cell strainer, and then centrifuged with serum-free RPMI-1640 medium. The supernatant was discarded and red blood cells (RBCs) were removed twice using RBC lysis buffer. Then, after washing the resultant with serum-free RPMI-1640 medium, an appropriate amount of serum-free RPMI-1640 medium was added thereto. The number of mouse splenocytes was measured, and the cells were inoculated into a 24-well plate at a density of 1×10^7 cells/well, and cultured overnight. […]
Next, the cell culture was recovered after cultivation, and the amount of secretion of IL-17, which is an inflammatory cytokine, was measured using an ELISA kit (Quantikine ELISA Kit, R&D System, USA) specific to […], and the absorbance was measured using Spectramax M2 (Molecular Devices).

[6] = tested on: TNF-α, COX2, IL-6 and IL-8 mRNA expression in human keratinocytes HaCaT; test: RT-PCR of inflammatory gene mRNA in HaCaT keratinocytes stimulated with TNF-α and hIL-17A; conditions: peptide 5 μM and 50 μM, TNF-α 10 nM and hIL-17A 200 ng/mL, one hour, FIG. 6
Experimental: In order to confirm the effect of the peptides of the present invention synthesized in Synthesis Example 1 on Th17-mediated inflammatory responses, the mRNA expression levels of TNF-α, COX2, IL-6, and IL-8 were measured by RT-PCR.
Specifically, the number of human keratinocytes HaCaT (CLS Cell Lines Service)) was measured, and the cells were inoculated into a 24-well plate at a density of 3×10^5 cells/well, and cultured overnight. Next day, the medium was replaced with serum-free medium and the cells were cultured for 4 hours, and then treated with the peptide of the present invention (5 μM and 50 μM) and TNF-α (10 nM) and hIL-17A (200 ng/mL), which are Th17 type inflammation-inducing cytokines, used as a stimulant, and cultured for one additional hour.
Next, cells were recovered after culture, and total RNA was extracted using an RNA extraction kit (Qiagen RNeasy kit), and after RNA quantification, cDNA was synthesized using a cDNA synthesis kit (Intron, Korea). A polymerase chain reaction (PCR) was performed by mixing a PCR premix (Intron, Korea), synthesized cDNA, and primers shown in [Table 3] below specific for each of the genes of TNF-α, COX2, IL-6, IL-8, and GAPDH. PCR products were electrophoresed on a 5% agarose gel and stained with ethidium bromide to confirm the mRNA expression levels of TNF-α, COX2, IL-6, and IL-8, which are genes associated with inflammation and autoimmune diseases.

[7] = tested on: iNOS and pJNK in human keratinocytes HaCaT; test: Western blot of iNOS and pJNK in HaCaT keratinocytes stimulated with TNF-α and hIL-17A; conditions: peptide 5 μM and 50 μM, TNF-α 10 nM and hIL-17A 200 ng/mL, 24 hours, FIG. 7
Experimental: In order to confirm the effect of the peptides of the present invention synthesized in Synthesis Example 1 on Th17-mediated inflammatory responses, the degree of phosphorylation of iNOS and pJNK, which are inflammation-inducing factors and signaling proteins, was measured by Western blot.
Specifically, the number of human keratinocytes HaCaT (CLS Cell Lines Service)) was measured, and the cells were inoculated into a 24-well plate at a density of […], and cultured overnight. Next day, the medium was replaced with serum-free medium and the cells were cultured for 4 hours, and then treated with the peptide of the present invention (5 μM and 50 μM) and TNF-α (10 nM) and hIL-17A (200 ng/mL), which are Th17 type inflammation-inducing cytokines, as a stimulant, and cultured for 24 additional hours.
After cultivation, the cells were recovered to prepare a cell lysate, and a western blot was performed using antibodies against iNOS and pJNK (Cell Signaling Technology, USA) to confirm the patterns of protein expression.

SVSVGMKPSPRP [peptide of the present invention]
significantly reduce: mRNA expression of COX2 (RT-PCR) [1] | mRNA expression of INFγ (RT-PCR) [1] | secretion of TNF-α (ELISA) ([2]; FIG. 2A) | secretion of IFN-γ (ELISA) ([2]; FIG. 2B) | secretion of IL-17 (ELISA) ([2]; FIG. 2C) | secretion of TNF-α (ELISA) ([3]; FIG. 3A) | secretion of IL-1β (ELISA) ([3]; FIG. 3B) | secretion of INFγ (ELISA) ([3]; FIG. 3C) | secretion of INFγ (ELISA) [4] | secretion of IL-17 (ELISA) [5] | mRNA expression of COX2 (RT-PCR) [6] | mRNA expression of IL-6 (RT-PCR) [6] | mRNA expression of IL-8 (RT-PCR) [6] | mRNA expression of TNF-α (RT-PCR) [6]
reduce: iNOS protein expression (Western blot) [7] | phosphorylation of JNK (Western blot) [7]
